How the values were obtained:
KRAS-G12D [1] = target: T1, KRAS-G12D (Homo sapiens, UniProt P01116, G12D); assay: KRAS-G12D degradation assay (Western Blot), AsPc-1 cells; format: cell-based; details: for DC50: 24 h; for Dmax: ASPC1, 24 h
T1 construct: endogenous in cells; host or cells: A-427 (ATCC), AGS, AsPc-1, Panc 04.03
Description: The degradation effects of the compounds on KRAS-G12D were investigated on KRAS G12D mutant human lung cancer cell A-427 (ATCC), KRAS G12D mutant human gastric cancer cell AGS, KRAS G12D mutant human metastatic pancreatic cancer cell AsPc-1, and KRAS G12D mutant human pancreatic adenocarcinoma cell Panc 04.03. The specific procedures were as follows: 0.95 mL of cells were seeded into each well of a 24-well cell culture plate to achieve a cell density of 5×10^5 cells/well; and the cell plate was incubated in an incubator at 37° C. with 5% CO2 overnight. Then 50 μL of the compound solution after dilution was added to each of the wells with the corresponding cells, so that the final concentration of the compound was in a range of 0.03-3000 nM. The final concentration of DMSO was 0.25%. After the compounds were added, the cell plate was incubated in the incubator at 37° C. with 5% CO2 for 24 h. The culture medium in the 24-well cell culture plate was removed, and the plate was washed twice with 1×PBS (KeyGEN). 120 μL of RIPA (strong) lysis buffer (Beyotime) supplemented with 1 mM phenylmethylsulfonyl fluoride, a protease inhibitor mixture (Beyotime), and a protease phosphatase inhibitor mixture (Beyotime) was added to lyse adherent A-427 cells at the bottom of the cell culture plate. After the plate was left to stand on ice for 30 min, the protein lysate in each well was transferred to a 1.5 mL centrifuge tube and centrifuged at 15000 g for 20 min at 4° C. The cell lysate supernatants after centrifugation were cryopreserved in a refrigerator at −80° C. for later use.
After the samples of the cell lysate supernatants that had been prepared were thawed from the refrigerator at −80° C., the total protein concentrations of the cell lysates were determined using a BCA protein quantification kit (Tiangen). The total protein concentrations of the samples were then adjusted to 0.5 μg/μL with PBS and 5×SDS-PAGE protein loading buffer (Beyotime), and the samples were incubated in a water bath at 100° C. for 15 min. The samples were then incubated in an ice bath for 5 min and centrifuged at 14000 g for 1 min at 4° C., and the supernatants were mixed well as loading samples for the Western Blot assay. The samples were loaded into wells of a 10% precast gel (KeyGEN) with a loading volume of 10 μL (total protein: 5 μg), a sufficient Tris-MOPS-SDS running buffer (Adamas) was added, and then electrophoresis was performed at a constant voltage of 120 V for 55 min. After the electrophoresis, the proteins on the gel were transferred to PVDF membranes at a constant current of 250 mA for 55 min. After the membrane transfer, the PVDF membranes were incubated in 1× Quick Block blocking buffer (Beyotime) at room temperature for 30 min. After the blocking, the PVDF membranes were separately incubated at 4° C. overnight with the KRAS antibody (Abcam) diluted in a ratio of 1:1000 and the […] antibody (Abcam) diluted in a ratio of 1:2000 in 5% BSA as the diluent, and then washed with 1×TBST buffer (2.4 g of Tris, 8.8 g of NaCl, 1.5 mL of Tween 20, with pH adjusted to 7.4, with the volume brought to 1 L) 3 times for 10 min/time. The membranes were incubated with a secondary antibody (Abcam) diluted in 5% BSA at room temperature for 2 h, and then washed with 1×TBST buffer 3 times for 10 min/time. Finally, the membranes were incubated with Clarity Western ECL Substrate (BIO-RAD) for 5 min for luminescence and color development, and a ChemiScope 6200 Touch chemiluminescence imaging system (Clinx) was used for color development and protein mapping. Gray value analysis of the protein maps was performed using the chemiluminescence analysis software (Clinx). The gray correction value for each sample was calculated using the formula: gray correction value=(gray value of target protein/gray value of corresponding internal reference)×10^3. Then degradation rates were calculated by comparison with the gray correction value of the control group. […]

[2] = test system: KRAS G12D mutant human gastric cancer cell AGS; assay: 3D cell proliferation inhibition assay, AGS; format: cell-based; details: 168 h, 7 days, CTG, numeric values
Outline: (§1)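 IC50 values derive from nonlinear fits of log dose against percent inhibition of 7-day 3D proliferation. Readout: CTG luminescence. Plating density: 5×10^2 cells/well in low-adsorption plates. Dosing: 10000–0.026 nM final, 0.2% DMSO.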

[3] = test system: KRAS G12D mutant human metastatic pancreatic cancer cell AsPc-1; assay: 3D cell proliferation inhibition assay, AsPc-1; format: cell-based; details: ASPC1, 168 h, AsPc-1, 7 days, CTG, numeric values
Description: (§2) The inhibitory effects of the compounds on 3D cell proliferation were investigated on KRAS G12D mutant human lung cancer cell A427, KRAS G12D mutant human gastric cancer cell AGS, KRAS G12D mutant human metastatic pancreatic cancer cell AsPc-1, KRAS G12D mutant human pancreatic cancer cell Panc 04.03, KRAS G12D mutant human pancreatic cancer cell HPAC, KRAS G12V mutant human lung squamous cell carcinoma cell SW900, and KRAS WT human gastric cancer cell MKN1. The specific procedures were as follows:
(§3) 10 μL of each compound solution diluted in a gradient was added to corresponding wells of a 96-well low-adsorption microplate (PerkinElmer), so that the final concentrations of the test compounds in the reaction system were in a range of 10000-0.026 nM. The final concentration of DMSO was 0.2%. Then 90 µL of cells were correspondingly seeded into each well to achieve a cell density of 5×10^2 cells/well (the cell density of SW900 was 5×10^1 cells/well, and the cell density of MKN1 was 1×10^3 cells/well). In addition to test wells for the test compounds, both a DMSO control well and a medium control well were set, with the DMSO control well containing DMSO and cells and the medium well containing only a medium. After the sample loading, the 96-well low-adsorption microplate was incubated in an incubator at 37° C. with 5% carbon dioxide for 7 days. After 7 days, the microplate was taken out, and 100 μL of CTG reagent (Promega) was added to each well. The plate was incubated at room temperature for 60 min and read on a microplate reader EnVision by the chemiluminescence program. The inhibition rates of the compounds at each concentration were calculated using the formula for the percentage inhibition of cell proliferation: inhibition rate %=(mean value of DMSO control group−single concentration reading value of compound)/(mean value of DMSO control group−mean value of medium control group)×100. Then non-linear curve fittings for logarithmic concentration-inhibition rate were performed by GraphPad Prism 8, and the IC50 values of the compounds were obtained (Table 5).

[4] = test system: KRAS G12D mutant human pancreatic cancer cell HPAC; assay: 3D cell proliferation inhibition assay, HPAC; format: cell-based; details: 168 h, 7 days, CTG
Description: as §2, §3

[5] = test system: KRAS G12D mutant human pancreatic cancer cell Panc 04.03; assay: 3D cell proliferation inhibition assay, Panc 04.03; format: cell-based; details: 168 h, Panc 04.03, 7 days, CTG, numeric values
Description: as §2, §3

KRAS-G12D [6] = target: T1, KRAS-G12D; assay: KRAS-G12D degradation assay (Western Blot), A-427 cells; format: cell-based; details: A427 cells, 24 h, numeric values
Outline: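 Each KRAS G12D mutant line (A-427, AGS, AsPc-1, Panc 04.03) was seeded at 5×10^5 cells/well and treated 24 h at 37 °C with 0.03–3000 nM compound (final DMSO 0.25%). KRAS in lysates was measured by Western blot, normalized to β-actin and compared with controls, giving DC50 and Dmax from curve fits.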

[7] = target: T2, Human KRAS G12D 6His-tagged (Homo sapiens, UniProt P01116, G12D); assay: KRAS-G12D/GTP binding assay (HTRF); details: numeric values
T2 construct: purchased PerkinElmer
T2 sequence (P01116 1-188 isoform P01116-2 G12D): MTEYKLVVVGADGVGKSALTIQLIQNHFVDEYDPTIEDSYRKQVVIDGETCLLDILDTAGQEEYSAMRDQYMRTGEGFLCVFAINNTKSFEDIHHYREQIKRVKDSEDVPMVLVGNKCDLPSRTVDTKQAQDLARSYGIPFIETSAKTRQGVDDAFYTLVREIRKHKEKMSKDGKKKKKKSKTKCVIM
Outline: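 HTRF kit format: 6His-tagged KRAS G12D incubated with compound (final 0.02-5000 nM, 0.5% DMSO), anti-6His Eu cryptate antibody and GTP Red reagent for 1 h at 25° C. 665/620 nm ratio versus control gave inhibition rates; IC50 by nonlinear fit.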

[8] = test system: KRAS G12D mutant human lung cancer cell A427; assay: 3D cell proliferation inhibition assay, A427; format: cell-based; details: A-427, 168 h, A427, 7 days, CTG, numeric values
Outline: as §1

T1 sequence (P01116 1-188 isoform P01116-2 G12D): as above

Row | Structure (SMILES) | DC50 (KRAS-G12D [1]) | Dmax (KRAS-G12D [1]) | IC50 [2] | IC50 [3] | IC50 [4] | IC50 [5] | DC50 (KRAS-G12D [6]) | Dmax (KRAS-G12D [6]; A-427) | IC50 [7] | IC50 [8]
1 | COc1ccc(C(=O)N2CCC3(CCC(CN4CCN(CC5(COc6nc(N7CC8CCC(C7)N8)c7cnc(-c8cc(O)cc(Cl)c8C8CC8)c(F)c7n6)CC5)CC4)CC3)CC2)cc1N1CCC(=O)NC1=O [Example 89] | 94.7 nM | 69% | 8.65 nM | 11.5 nM | 12.8 nM | – | – | – | – | –
2 | [2H]C([2H])([2H])c1ccc(C(=O)N2CCC3(CCC(CN4CCN(CC5(COc6nc(N7CC8CCC(C7)N8)c7cnc(-c8cc(O)cc9ccc(F)c(C#C)c89)c(F)c7n6)CC5)CC4)CC3)CC2)cc1N1CCC(=O)NC1=O [Example 103, 1-(5-(9-((4-((1-(((4-(3,8-diazabicyclo[3.2.1]octan-3-yl)-7-(8-ethynyl-7-fluoro-3-hydroxynaphthalen-1-yl)-8-fluoropyrido[4,3-d]pyrimidin-2-yl)oxy)methyl)cyclopropyl)methyl)piperazin-1-yl)methyl)-3-azaspiro[5.5]undecane-3-carbonyl)-2-(methyl-d3)phenyl)dihydropyrimidine-2,4(1H,3H)-dione] | – | – | 4.35 nM | 1.41 nM | 1.58 nM | 16.8 nM | – | – | – | –
3 | [2H]C([2H])(C1CCC2(CC1)CCN(C(=O)c1ccc(C)c(N3CCC(=O)NC3=O)c1)CC2)N1CCN(CC2(COc3nc(N4CC5CCC(C4)N5)c4ccc(-c5cc(O)cc6ccc(F)c(C#C)c56)c(F)c4n3)CC2)CC1 [Example 107, 1-(5-(9-((4-((1-(((4-(3,8-diazabicyclo[3.2.1]octan-3-yl)-7-(8-ethynyl-7-fluoro-3-hydroxynaphthalen-1-yl)-8-fluoroquinazolin-2-yl)oxy)methyl)cyclopropyl)methyl)piperazin-1-yl)methyl-d2)-3-azaspiro[5.5]undecane-3-carbonyl)-2-methylphenyl)dihydropyrimidine-2,4(1H,3H)-dione] | 13.7 nM | 97.5% | – | 27.5 nM | 10.8 nM | – | 4.98 nM | 94.7% | – | –
4 | C#Cc1c(F)ccc2cc(O)cc(-c3ncc4c(N5CC6CCC(C5)N6)nc(OCC(C)CN5CCN(CC6CCC7(CC6)CCN(C(=O)c6ccc(C)c(N8CCC(=O)NC8=O)c6)CC7)CC5)nc4c3F)c12 (centres unmarked) [Example 108, 1-(5-(9-((4-(3-((4-(3,8-diazabicyclo[3.2.1]octan-3-yl)-7-(8-ethynyl-7-fluoro-3-hydroxynaphthalen-1-yl)-8-fluoropyrido[4,3-d]pyrimidin-2-yl)oxy)-2-methylpropyl)piperazin-1-yl)methyl)-3-azaspiro[5.5]undecane-3-carbonyl)-2-methylphenyl)dihydropyrimidine-2,4(1H,3H)-dione] | – | – | – | 4.53 nM | 6.87 nM | – | – | – | 3.22 nM | –
5 | C#Cc1c(F)ccc2cc(O)cc(-c3ccc4c(N5CC6CCC(C5)N6)nc(OC[C@H](C)CN5CCN(CC6CCC7(CC6)CCN(C(=O)c6ccc(OC)c(N8CCC(=O)NC8=O)c6)CC7)CC5)nc4c3F)c12 [Example 207, 1-(5-(9-((4-((R)-3-((4-(3,8-diazabicyclo[3.2.1]octan-3-yl)-7-(8-ethynyl-7-fluoro-3-hydroxynaphthalen-1-yl)-8-fluoroquinazolin-2-yl)oxy)-2-methylpropyl)piperazin-1-yl)methyl)-3-azaspiro[5.5]undecane-3-carbonyl)-2-methoxyphenyl)dihydropyrimidine-2,4(1H,3H)-dione] | 15.1 nM | 99.7% | 11.2 nM | 16.1 nM | – | 34.5 nM | – | – | – | –
6 | C#Cc1c(F)ccc2cc(O)cc(-c3ncc4c(N5CC6CCC(C5)N6)nc(OC[C@@H](C)CN5CCN(CC6CCC7(CC6)CCN(C(=O)c6ccc(OC)c(N8CCC(=O)NC8=O)c6)CC7)CC5)nc4c3F)c12 [Example 254, 1-(5-(9-((4-((S)-3-((4-(3,8-diazaspirobicyclo[3.2.1]octan-3-yl)-7-(8-ethynyl-7-fluoro-3-hydroxynaphthalen-1-yl)-8-fluoropyrido[4,3-d]pyrimidin-2-yl)oxy)-2-methylpropyl)piperazin-1-yl)methyl)-3-azaspiro[5.5]undecane-3-carbonyl)-2-methoxyphenyl)dihydropyrimidine-2,4(1H,3H)-dione] | 32.5 nM | 83.4% | 13 nM | 7.85 nM | 14.3 nM | – | – | – | – | 74.7 nM
